Measurements as given in patent US20220041641A1, “QUATERNARY AMMONIUM SALTS AS INHIBITORS OF TRIMETHYLAMINE PRODUCTION” (Senda Biosciences, Inc., priority 2018, published 2022).
Where a name gives a salt, the structure may show the parent alone. Read-outs that look alike come from different tables or passages of the source.

Columns and labels:
CutC/D enzyme = experiment: Acute mouse model (plasma TMAO on choline diet); type: in vivo, male C57BL/6 mice
Protocol: The following acute mouse model may be used to determine inhibition of the CutC/D enzyme and thus the inhibition of the formation of trimethylamine (TMA) from choline.
On day 1, male C57BL/6 mice were given a chemically defined diet (Tekland Global Rodent Diet 2018) containing 1.0% choline (g/g) for the duration of the experiment. Concurrently on day 1, mice were orally gavaged with 200 μL of compounds of interest (formulated in water). Mice were orally gavaged with the compounds and vehicle control again on day 2 and day 3 at a fixed time. Twenty hours after the last gavage, mice were sacrificed, and plasma was collected and prepared for detection of trimethylamine-N-oxide (TMAO) via liquid chromatography with on-line tandem mass spectrometry (LC-MS/MS). Food consumption and mouse weight were measured each day.
Plasma samples were prepared for LCMS as follows: An aliquot of 20 μL plasma sample was protein precipitated with 200 μL internal standard solution (100 ng/mL Labetalol & 100 ng/mL Tolbutamide & 100 ng/mL Diclofenac in acetonitrile, the mixture was vortex-mixed and centrifuged at 4000 rpm for 15 min, 4° C. An aliquot of 100 μL supernatant was transferred to the sample plate for LCMS injection. 1 μL of sample was injected onto an LC column for TMAO LCMS analysis.
Concentrations of TMAO were determined with a calibration curve ranging 0.05-100 μM for d9-TMAO in control plasma.

[1] = target: CutC from Proteus mirabilis (Proteus mirabilis, UniProt B4EYG1); experiment: Cell-based assay for TMA production from a native producer (P. mirabilis)
Excerpt: In each bacterium, CutC was modified into its activated form by a cognate activating enzyme, CutD (protein EDU36696.1 for C. sporogenes; protein WP_004249185.1 for P. mirabilis). […] Trimethylamine may subsequently be converted by human enzymes such as flavin monooxygenase 3 to trimethylamine N-oxide, which might be associated with negative health consequences in humans.
A compound's ability to inhibit CutC from Proteus mirabilis and C. sporogenes from converting choline into trimethylamine was tested in cells as described. A BHI blood plate was inoculated with a frozen stock of Proteus mirabilis or Clostridium sporogenes under anaerobic conditions. A single colony was isolated from the plate and inoculated into 5 mL BHI supplemented with 1 mM choline under anaerobic conditions. The liquid cultures were grown overnight at 37° C.
To prepare each sample, 300 μL of the saturated culture was then inoculated into a 30 mL dilution blank under anaerobic conditions. 1 mM (trimethyl-d9)-choline and a sufficient amount of a compound to obtain a final concentration of 10 μM were added to the inoculated dilution blank. […] The mixture was incubated at 37° C. for 5 h. […] After centrifugation, the samples were analyzed by LCMS to determine the amount of d9-TMA produced.

[2] = Table 4d, 100 mg/kg oral gavage days 1-3
[3] = Table 4d, 100 mg/kg oral gavage days 1-3, plasma 20 h after last gavage
[4] = d9-TMA from 1 mM d9-choline, 5 h, 37° C.; value 10 given when no fit or % TMA remaining at 10 μM higher than 15%; read-out: Average IC50 Whole cell P. mirabilis
[5] = read-out: Average IC50 Whole cell P. mirabilis; d9-TMA from 1 mM d9-choline, 5 h, 37° C.; value 10 given when no fit or % TMA remaining at 10 μM higher than 15%

Sequence of CutC from Proteus mirabilis (B4EYG1 entry or part of it): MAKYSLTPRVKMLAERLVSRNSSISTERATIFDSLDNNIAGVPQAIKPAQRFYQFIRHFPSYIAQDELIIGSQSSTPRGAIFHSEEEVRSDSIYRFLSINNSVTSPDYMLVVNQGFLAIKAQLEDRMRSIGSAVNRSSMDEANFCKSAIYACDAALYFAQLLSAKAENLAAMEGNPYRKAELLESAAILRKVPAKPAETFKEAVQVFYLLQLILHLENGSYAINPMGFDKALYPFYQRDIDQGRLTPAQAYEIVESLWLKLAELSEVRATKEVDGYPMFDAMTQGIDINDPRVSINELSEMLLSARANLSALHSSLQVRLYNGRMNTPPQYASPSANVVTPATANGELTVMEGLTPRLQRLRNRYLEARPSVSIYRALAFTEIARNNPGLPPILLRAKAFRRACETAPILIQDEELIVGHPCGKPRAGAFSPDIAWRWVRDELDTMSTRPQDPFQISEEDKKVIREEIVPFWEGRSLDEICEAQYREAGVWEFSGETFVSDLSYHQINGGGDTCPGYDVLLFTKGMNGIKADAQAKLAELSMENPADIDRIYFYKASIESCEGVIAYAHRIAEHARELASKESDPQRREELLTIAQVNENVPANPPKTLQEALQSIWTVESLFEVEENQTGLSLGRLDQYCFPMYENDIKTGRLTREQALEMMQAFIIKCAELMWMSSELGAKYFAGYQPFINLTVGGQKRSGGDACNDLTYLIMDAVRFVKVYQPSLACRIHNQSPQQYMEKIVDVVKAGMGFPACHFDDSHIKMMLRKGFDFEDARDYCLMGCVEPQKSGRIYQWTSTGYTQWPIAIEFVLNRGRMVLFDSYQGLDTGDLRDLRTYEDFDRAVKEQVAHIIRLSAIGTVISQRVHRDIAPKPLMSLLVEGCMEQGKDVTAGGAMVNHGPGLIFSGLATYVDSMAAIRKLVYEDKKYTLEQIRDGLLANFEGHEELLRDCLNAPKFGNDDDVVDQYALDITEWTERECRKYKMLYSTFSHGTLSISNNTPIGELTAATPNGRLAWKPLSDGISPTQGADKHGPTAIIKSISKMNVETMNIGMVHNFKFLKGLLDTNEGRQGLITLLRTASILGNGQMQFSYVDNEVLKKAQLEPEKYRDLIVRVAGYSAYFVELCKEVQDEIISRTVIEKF
Sequence of CutC from Proteus mirabilis (B4EYG0 entry or part of it, further chain): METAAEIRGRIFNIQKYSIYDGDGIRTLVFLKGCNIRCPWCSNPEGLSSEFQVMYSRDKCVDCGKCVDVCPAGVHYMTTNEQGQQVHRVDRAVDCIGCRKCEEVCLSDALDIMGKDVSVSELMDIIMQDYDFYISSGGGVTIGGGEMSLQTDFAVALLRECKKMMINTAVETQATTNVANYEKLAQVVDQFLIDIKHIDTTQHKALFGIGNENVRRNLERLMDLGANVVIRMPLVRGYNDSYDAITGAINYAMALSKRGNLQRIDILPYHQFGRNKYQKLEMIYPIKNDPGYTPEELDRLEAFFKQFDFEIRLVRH

Compound | IC50 [1, 4] | also measured
C#CC[N+](C)(C)CCOC1OC[C@@H](OC(C)=O)[C@@H](OC(C)=O)[C@H]1OC(C)=O.[Br-] (stereo partly drawn) [Compound 9, N,N-dimethyl-N-(2-(((3R,4R,5R)-3,4,5-triacetoxytetrahydro-2H-pyran-2-yl)oxy)ethyl)prop-2-yn-1-aminium bromide] |  | % change from vehicle control + choline diet (CutC/D enzyme; [2]): 80%; Mean plasma TMAO (CutC/D enzyme; [3]): 33.91 µM
C#CC[N+](C)(C)CCO[C@@H]1OC[C@H](OC(C)=O)[C@H](OC(C)=O)[C@H]1OC(C)=O.[I-] [Compound 10, N,N-dimethyl-N-(2-(((3R,4S,5S)-3,4,5-triacetoxytetrahydro-2H-pyran-2-yl)oxy)ethyl)prop-2-yn-1-aminium Iodide] |  | % change from vehicle control + choline diet (CutC/D enzyme; [2]): −21%; Mean plasma TMAO (CutC/D enzyme; [3]): 14.9 µM
C#CC[N+](C)(C)CC(=O)O[C@H]1O[C@H](COC(C)=O)[C@@H](OC(C)=O)[C@H](OC(C)=O)[C@H]1OC(C)=O.O=C([O-])C(F)(F)F [Compound 19, N,N-dimethyl-N-(2-oxo-2-(((2R,3R,4S,5R,6R)-3,4,5-triacetoxy-6-(acetoxymethyl)tetrahydro-2H-pyran-2-yl)oxy)ethyl)prop-2-yn-1-aminium trifluoroacetate] | 1.73 µM | % change from vehicle control + choline diet (CutC/D enzyme; Table 4a, 333 mg/kg oral gavage days 1-3): −84.29%; Mean plasma TMAO (CutC/D enzyme; Table 4a, 333 mg/kg oral gavage days 1-3, plasma 20 h after last gavage): 5.40 µM
C#CC[N+](C)(C)CCCCOC1O[C@@H](C)[C@@H](OC(=O)CCC)[C@@H](OC(=O)CCC)[C@@H]1OC(=O)CCC.[Br-] (stereo partly drawn) [Compound 58, N,N-dimethyl-N-(prop-2-yn-1-yl)-4-(((3S,4R,5R,6S)-3,4,5-tris(butyryloxy)-6-methyltetrahydro-2H-pyran-2-yl)oxy)butan-1-aminium bromide] |  | % change from vehicle control + choline diet (CutC/D enzyme; Table 4d, 10 mg/kg oral gavage days 1-3): −46%; Mean plasma TMAO (CutC/D enzyme; Table 4d, 10 mg/kg oral gavage days 1-3, plasma 20 h after last gavage): 10.1 µM
C[N+]1(CF)CCC[C@@H]1CO (stereo partly drawn) [Compound 151, (2R)-1-(fluoromethyl)-2-(hydroxymethyl)-1-methylpyrrolidin-1-ium Iodide] | 0.89 µM | % change from vehicle control + choline diet (CutC/D enzyme; Table 4g, 116 mg/kg oral gavage days 1-3): 6%; Mean plasma TMAO (CutC/D enzyme; Table 4g, 116 mg/kg oral gavage days 1-3, plasma 20 h after last gavage): 29.4 µM
C#CC[N+](C)(C)CC(=C)Cl.[Cl-] [Compound 185, (2-chloroprop-2-en-1-yl)dimethyl(prop-2-yn-1-yl)azanium Chloride] | 0.235 µM | % change from vehicle control + choline diet (CutC/D enzyme; Table 4e, 123.7 mg/kg oral gavage days 1-3): −16%; Mean plasma TMAO (CutC/D enzyme; Table 4e, 123.7 mg/kg oral gavage days 1-3, plasma 20 h after last gavage): 22.2 µM
C#CC[N+](C)(C)CCP(=O)(OCC)OCC [Compound 202, diethyl {2-[dimethyl(prop-2-yn-1-yl)azaniumyl]ethyl}phosphonate Bromide] |  | IC50 [1, 5]: 0.242 µM
C=CC[N+](C)(C)CC(=C)C(=O)OC [Compound 203, N-allyl-2-(methoxycarbonyl)-N,N-dimethylprop-2-en-1-aminium 2,2,2-trifluoroacetate] | 1.72 µM | 
C#CC[N+](C)(C)CCC [Compound 204, dimethyl(prop-2-yn-1-yl)propylazanium Iodide] | 0.66 µM | 
C#CC[N+]1(CF)CCC[C@H]1CO (stereo partly drawn) [Compound 205, (2S)-1-(fluoromethyl)-2-(hydroxymethyl)-1-(prop-2-yn-1-yl)pyrrolidin-1-ium Iodide] | 8.3 µM | 
C#CC[N+](C)(C)CC [Compound 206, ethyldimethyl(prop-2-yn-1-yl)azanium Iodide] | 0.069 µM | 
C#CC[N+](C)(C)Cc1ncco1 [Compound 207, dimethyl[(1,3-oxazol-2-yl)methyl](prop-2-yn-1-yl)azanium Chloride] | 0.31 µM | 
C#CC[N+](C)(C)CC(=C)C [Compound 208, N,N,2-trimethyl-N-(prop-2-yn-1-yl)prop-2-en-1-aminium 2,2,2-trifluoroacetate] | > 10 µM | 
C#CC[N+](C)(C)CC(=C)F [Compound 209, 2-fluoro-N,N-dimethyl-N-(prop-2-yn-1-yl)prop-2-en-1-aminium 2,2,2-trifluoroacetate] | 6.8 µM | 
C#CC[N+](C)(C)CCP(=O)(O)O [Compound 210, {2-[dimethyl(prop-2-yn-1-yl)azaniumyl]ethyl}phosphonic Acid] |  | IC50 [1, 5]: > 10 µM
C#CC[N+](C)(C)CC=C [Compound 211, N,N-dimethyl-N-(prop-2-yn-1-yl)prop-2-en-1-aminium 2,2,2-trifluoroacetate] | 0.211 µM | 
COC[N+](C)(C)CCO [Compound 212, (2-hydroxyethyl)(methoxymethyl)dimethylazanium trifluoroacetate] | 1.99 µM | 
CC[N+](C)(CF)CCO (stereo not drawn) [Compound 213, ethyl(fluoromethyl)(2-hydroxyethyl)(methyl)azanium Iodide] | 0.18 µM | 

Compound | IC50 [1, 4] | also measured
C#CC[N+]1(CF)CC[C@@H](O)C1 (stereo partly drawn) [Compound 214, (3R)-1-(fluoromethyl)-3-hydroxy-1-(prop-2-yn-1-yl)pyrrolidin-1-ium] | 3.87 µM | 
C#CC[N+](C)(C)CCC(=O)NS(C)(=O)=O [Compound 215, [2-(methanesulfonylcarbamoyl)ethyl]dimethyl(prop-2-yn-1-yl)azanium] | 0.409 µM | 
C#CC[N+](C)(C)CC(=O)NS(C)(=O)=O [Compound 216, [(methanesulfonylcarbamoyl)methyl]dimethyl(prop-2-yn-1-yl)azanium] | > 10 µM | 
C#CC[N+](C)(C)CC(=C)Br [Compound 217, (2-bromoprop-2-en-1-yl)dimethyl(prop-2-yn-1-yl)azanium] | 0.771 µM | 
C[N+]1(C)CCOC(O)(C(F)(F)F)C1 (stereo not drawn) [Compound 218, 2-hydroxy-4,4-dimethyl-2-(trifluoromethyl)morpholin-4-ium trifluoroacetate] | > 10 µM | 
C[N+](C)(CCO)C1COC1 [Compound 219, N-(2-hydroxyethyl)-N,N-dimethyloxetan-3-aminium trifluoroacetate] | > 10 µM | 
C[N+]1(C)CCOCC1CO (stereo not drawn) [Compound 220, 3-(hydroxymethyl)-4,4-dimethylmorpholin-4-ium] | > 10 µM | 
C#CC[N+](C)(C)CCS(=O)(=O)O [Compound 221, dimethyl(prop-2-yn-1-yl)(2-sulfoethyl)azanium Trifluoroacetate] | > 10 µM | 
C#CC[N+](C)(C)CCCB(O)O [Compound 222, {3-[dimethyl(prop-2-yn-1-yl)azaniumyl]propyl}boronic Acid] | > 10 µM | 
C#CC[N+](C)(CC#C)CCS(=O)(=O)O [Compound 223, methylbis(prop-2-yn-1-yl)(2-sulfoethyl)azanium] | 2.28 µM | 
C#CC[N+](C)(C)Cc1ncno1 [Compound 224] | 0.223 µM | 
CCC[N+](C)(CF)CCO (stereo not drawn) [Compound 225] | 0.629 µM | 
C#CC1CCC[N+]1(C)C (stereo not drawn) [Compound 226] | 0.244 µM | 
C#CC[N+](C)(C)CC[PH](=O)O [Compound 227, {2-[dimethyl(prop-2-yn-1-yl)azaniumyl]ethyl}phosphinic Acid] |  | IC50 [1, 5]: > 10 µM
COCC[N+](C)(C)CF [Compound 228, (fluoromethyl)(2-methoxyethyl)dimethylazanium Iodide] | > 10 µM | 
CSCC[N+](C)(C)CF [Compound 229, (fluoromethyl)dimethyl[2-(methylsulfanyl)ethyl]azanium] | > 100 µM | 
CC(=O)OC[C@H]1OC(OCC[N+](C)(C)C2CC2)[C@H](OC(C)=O)[C@@H](OC(C)=O)[C@@H]1OC(C)=O.[I-] (stereo partly drawn) [Compound 312, N,N-dimethyl-N-(2-(((3R,4S,5R,6R)-3,4,5-triacetoxy-6-(acetoxymethyl)tetrahydro-2H-pyran-2-yl)oxy)ethyl)cyclopropanaminium iodide] |  | % change from vehicle control + choline diet (CutC/D enzyme; Table 4d, 35.4 mg/kg oral gavage days 1-3): −38%; Mean plasma TMAO (CutC/D enzyme; Table 4d, 35.4 mg/kg oral gavage days 1-3, plasma 20 h after last gavage): 11.69 µM
